Marks after values point to notes of the source that are not given here.
Tested on: myeloperoxidase (MPO)
Assay: Myeloperoxidase (MPO) expression/activity inhibition in LPS-stimulated skin PMNs (ELISA on cell supernatants)
Assay type: cell-based
Details: human skin PMNs stimulated with LPS, positive reference at 0.1%, 6 hours of incubation
Description: Tamarind Seed Polysaccharide (either alone and in combination with standardized botanical extracts) was tested for its ability to reduce inflammation cellular response through the measurement of the inhibition of myeloperoxidase (MPO) activity in polymorphonuclear neutrophils (PMNs). Inflammation, in particular during the acute phase, causes the migration of PMNs towards the inflammation site by chemotaxis. It is also known that the degree of MPO activity is directly proportional to the number of PMNs present in the tissue and to the inflammatory response. Thus, a reduction of the number of PMNs corresponds to a reduction in the activity of myeloperoxidase and it can he then concluded that the cellular response to inflammation is reduced accordingly.
Human skin PMNs were cultivated in bacteriological Petri dishes with 100 mm diameter. Cell culture medium was RPMI-1640 supplemented with Penicillin (100 U/ml), Streptomycin (100 mcg/ml), L-glutamin (2 mM) and 10% heat-inactivated and filtered FCS (Foetal Calf Serum). PMNs were then stimulated with the addition of LPS (lipopolysaccharides) to the cultivation media. […]
After 6 hours of incubation, the overall inhibition of myeloperoxidase (MPO) activity was quantified in the PMNs cell supernatants using an enzyme immunoassay kit (ELISA).

For `C[C@@H]1C[C@H]2[C@@H]3CCC4=CC(=O)C=C[C@]4(C)[C@@]3(F)[C@@H](O)C[C@]2(C)[C@@]1(O)C(=O)CO` [Dexamethasone], the “MPO Inhibition of Expression (Δ % vs. basal)” value was −30%*.

Source: patent publication US10130652B2, “Anti-inflammatory compositions” (INDENA S.P.A., priority 2010, dated 2018)
